Source: ChEMBL document CHEMBL5137031, “The structure-based design of peptidomimetic inhibitors against SARS-CoV-2 3C like protease as Potent anti-viral drug candidate” (Eur J Med Chem, 2022)

Key:
[1] = target: Replicase polyprotein 1ab (Severe acute respiratory syndrome coronavirus 2, UniProt P0DTD1); test: Inhibition of SARS-CoV-2 3CL protease expressed in Escherichia coli BL21 (DE3) cells assessed as change in relative fluorescence unit using MCA-TSAVLQSGFRK(DNP)M as substrate preincubated for 30 mins followed by substrate addition and measured after 2 hrs by microplate reader based FRET assay
A549 = test: Cytotoxicity against human A549 cells assessed as inhibition of cell growth measured after 24 hrs by MTT assay; assay type: toxicity, cell-based; conditions: a549, 24 h
SARS-CoV-2 [2] = test: Antiviral activity against SARS-CoV-2 WIV04 infected in African green monkey Vero cells assessed as inhibition of viral proliferation measured at 24 hrs post infection by qRT-PCR analysis; assay type: functional, organism-based; conditions: Severe acute respiratory syndrome coronavirus 2, WIV04, Vero
Vero = test: Cytotoxicity against African green monkey Vero cells assessed as reduction in cell viability incubated for 48 hrs by CCK8 assay; assay type: toxicity, cell-based; conditions: chlorocebus sabaeus
SARS-CoV-2 [3] = test: Antiviral activity against SARS-CoV-2 WIV04 infected in African green monkey Vero cells assessed as log reduction in viral RNA at 10 uM measured at 24 hrs post infection by qRT-PCR analysis; assay type: functional, Severe acute respiratory syndrome coronavirus 2

SMILES | IC50 [1] | Activity (A549) | EC50 (SARS-CoV-2 [2]) | Activity (Vero) | log(activity) (SARS-CoV-2 [3])
CC(C)C[C@H](NC(=O)[C@@H](NC(=O)c1ccco1)C(C)C)C(=O)N[C@H](C=O)C[C@@H]1CCCNC1=O | 234 nM | Non-Toxic | > 3000 nM | – | –
CC(C)C[C@H](NC(=O)[C@@H](NC(=O)c1ccc(Cl)cc1)C(C)C)C(=O)N[C@H](C=O)C[C@@H]1CCCNC1=O | 148 nM | Non-Toxic | > 3000 nM | – | –
CCCC[C@H](NC(=O)/C=C/c1ccccc1)C(=O)N[C@H](C=O)C[C@@H]1CCCNC1=O | 277 nM | Non-Toxic | > 3000 nM | – | –
CC(C)C[C@H](NC(=O)[C@@H](NC(=O)c1ccccc1)C(C)C)C(=O)N[C@H](C=O)C[C@@H]1CCCNC1=O | 257 nM | Non-Toxic | > 3000 nM | – | –
CC(C)C[C@H](NC(=O)[C@@H](NC(=O)/C=C/c1ccccc1F)C(C)C)C(=O)N[C@H](C=O)C[C@@H]1CCCNC1=O | 173 nM | Non-Toxic | > 3000 nM | – | –
O=C[C@H](C[C@@H]1CCCNC1=O)NC(=O)[C@H](CC1CC1)NC(=O)/C=C/c1ccccc1 | 298 nM | Non-Toxic | 1130 nM | Non-Toxic | –
CC(C)C[C@H](NC(=O)[C@@H](NC(=O)/C=C/c1ccccc1)C(C)C)C(=O)N[C@H](C=O)C[C@@H]1CCCNC1=O | 281 nM | Non-Toxic | > 3000 nM | – | –
CC(C)C[C@H](NC(=O)[C@@H](NC(=O)c1ccc2cc[nH]c2c1)C(C)C)C(=O)N[C@H](C=O)C[C@@H]1CCCNC1=O | 221 nM | Non-Toxic | > 3000 nM | – | –
CCCC[C@H](NC(=O)/C=C/c1ccccc1)C(=O)N[C@H](C=O)C[C@@H]1CCNC1=O | 373 nM | Non-Toxic | 1110 nM | Non-Toxic | 2
CC(C)C[C@H](NC(=O)[C@@H](NC(=O)c1ccoc1)C(C)C)C(=O)N[C@H](C=O)C[C@@H]1CCCNC1=O | 173 nM | Non-Toxic | > 3000 nM | – | –
CC[C@H](C)[C@H](NC(=O)/C=C/c1ccccc1)C(=O)N[C@@H](CC(C)C)C(=O)N[C@H](C=O)C[C@@H]1CCCNC1=O | 357 nM | Non-Toxic | > 3000 nM | – | –
CC(C)C[C@H](NC(=O)[C@@H](NC(=O)C1CCCCC1)C(C)C)C(=O)N[C@H](C=O)C[C@@H]1CCCNC1=O | 1410 nM | Non-Toxic | > 3000 nM | – | –
CC(C)C[C@H](NC(=O)[C@@H](NC(=O)/C=C/c1ccc(-c2ccccc2)cc1)C(C)C)C(=O)N[C@H](C=O)C[C@@H]1CCCNC1=O | 295 nM | Non-Toxic | > 3000 nM | – | –
CC(C)C[C@H](NC(=O)[C@@H](NC(=O)c1ccc([N+](=O)[O-])cc1)C(C)C)C(=O)N[C@H](C=O)C[C@@H]1CCCNC1=O | 209 nM | Non-Toxic | > 3000 nM | – | –
C#CC[C@H](NC(=O)/C=C/c1ccccc1)C(=O)N[C@H](C=O)C[C@@H]1CCNC1=O | 3890 nM | Non-Toxic | > 3000 nM | – | –
CC(C)C[C@H](NC(=O)[C@@H](NC(=O)C1CCOCC1)C(C)C)C(=O)N[C@H](C=O)C[C@@H]1CCCNC1=O | 285 nM | Non-Toxic | > 3000 nM | – | –
CC(C)C[C@H](NC(=O)/C=C/c1ccccc1)C(=O)N[C@H](C=O)C[C@@H]1CCCNC1=O | 321 nM | Non-Toxic | 1510 nM | Non-Toxic | 2
CC(C)C[C@H](NC(=O)[C@@H](NC(=O)c1ccccn1)C(C)C)C(=O)N[C@H](C=O)C[C@@H]1CCCNC1=O | 565 nM | Non-Toxic | > 3000 nM | – | –
CC(C)C[C@H](NC(=O)[C@@H](NC(=O)/C=C/c1ccc(F)cc1)C(C)C)C(=O)N[C@H](C=O)C[C@@H]1CCCNC1=O | 307 nM | Non-Toxic | > 3000 nM | – | –
C=CC[C@H](NC(=O)/C=C/c1ccccc1)C(=O)N[C@H](C=O)C[C@@H]1CCCNC1=O | 1340 nM | Non-Toxic | > 3000 nM | – | –
COc1ccc(/C=C/C(=O)N[C@H](C(=O)N[C@@H](CC(C)C)C(=O)N[C@H](C=O)C[C@@H]2CCCNC2=O)C(C)C)cc1 | 249 nM | Non-Toxic | > 3000 nM | – | –
C[C@H](NC(=O)/C=C/c1ccccc1)C(=O)N[C@H](C=O)C[C@@H]1CCCNC1=O | 12300 nM | Non-Toxic | > 3000 nM | – | –

SMILES | IC50 [1] | Activity (A549) | EC50 (SARS-CoV-2 [2]) | Activity (Vero) | log(activity) (SARS-CoV-2 [3])
CC(C)C[C@H](NC(=O)[C@@H](NC(=O)c1cccnc1)C(C)C)C(=O)N[C@H](C=O)C[C@@H]1CCCNC1=O | 640 nM | Non-Toxic | > 3000 nM | – | –
CC(C)C[C@H](NC(=O)[C@H](CC1CCCCC1)NC(=O)/C=C/c1ccccc1)C(=O)N[C@H](C=O)C[C@@H]1CCCNC1=O | 1500 nM | Non-Toxic | 1670 nM | Non-Toxic | 2
CC(C)C[C@H](NC(=O)[C@@H](NC(=O)c1cc2ccccc2[nH]1)C(C)C)C(=O)N[C@H](C=O)C[C@@H]1CCCNC1=O | 295 nM | Non-Toxic | > 3000 nM | – | –
CC(C)C[C@H](NC(=O)[C@@H](NC(=O)c1ccc[nH]1)C(C)C)C(=O)N[C@H](C=O)C[C@@H]1CCCNC1=O | 172 nM | Non-Toxic | > 3000 nM | – | –
Cc1ccc(/C=C/C(=O)N[C@H](C(=O)N[C@@H](CC(C)C)C(=O)N[C@H](C=O)C[C@@H]2CCCNC2=O)C(C)C)cc1 | 196 nM | Non-Toxic | > 3000 nM | – | –
CC(C)C[C@H](NC(=O)[C@@H](NC(=O)CCc1ccccc1)C(C)C)C(=O)N[C@H](C=O)C[C@@H]1CCCNC1=O | 199 nM | Non-Toxic | > 3000 nM | – | –
CC(C)C[C@H](NC(=O)[C@@H](NC(=O)c1ccncc1)C(C)C)C(=O)N[C@H](C=O)C[C@@H]1CCCNC1=O | 153 nM | Non-Toxic | > 3000 nM | – | –
CC(C)C[C@H](NC(=O)[C@@H](NC(=O)c1ccc2ccccc2c1)C(C)C)C(=O)N[C@H](C=O)C[C@@H]1CCCNC1=O | 271 nM | Non-Toxic | 1360 nM | Non-Toxic | 2
CC(C)C[C@H](NC(=O)[C@@H](NC(=O)/C=C/c1cccc(F)c1)C(C)C)C(=O)N[C@H](C=O)C[C@@H]1CCCNC1=O | 255 nM | Non-Toxic | > 3000 nM | – | –
CC(C)C[C@H](NC(=O)[C@@H](NC(=O)c1ccc(C(F)(F)F)cc1)C(C)C)C(=O)N[C@H](C=O)C[C@@H]1CCCNC1=O | 1430 nM | Non-Toxic | > 3000 nM | – | –
O=C[C@H](C[C@@H]1CCCNC1=O)NC(=O)[C@@H](NC(=O)/C=C/c1ccccc1)c1ccccc1 | 2040 nM | Non-Toxic | > 3000 nM | – | –
CC(C)(C)[C@H](NC(=O)/C=C/c1ccccc1)C(=O)N[C@H](C=O)C[C@@H]1CCCNC1=O | 3440 nM | Non-Toxic | > 3000 nM | – | 2
CC(C)C[C@H](NC(=O)[C@@H](NC(=O)/C=C/c1ccc(N(C)C)cc1)C(C)C)C(=O)N[C@H](C=O)C[C@@H]1CCCNC1=O | 592 nM | Non-Toxic | > 3000 nM | – | –
CC(C)[C@H](NC(=O)/C=C/c1ccccc1)C(=O)N[C@H](C=O)C[C@@H]1CCCNC1=O | 6930 nM | Non-Toxic | > 3000 nM | – | –
CC(C)C[C@H](NC(=O)[C@@H](NC(=O)c1ccc(F)cc1)C(C)C)C(=O)N[C@H](C=O)C[C@@H]1CCCNC1=O | 197 nM | Non-Toxic | > 3000 nM | – | –
CCC[C@H](NC(=O)/C=C/c1ccccc1)C(=O)N[C@@H](CC(C)C)C(=O)N[C@H](C=O)C[C@@H]1CCCNC1=O | 543 nM | Non-Toxic | > 3000 nM | – | –
C#CC[C@H](NC(=O)/C=C/c1ccccc1)C(=O)N[C@H](C=O)C[C@@H]1CCCNC1=O | 3280 nM | Non-Toxic | > 3000 nM | – | –
CC(C)C[C@H](NC(=O)[C@@H](NC(=O)c1ccc(-c2ccccc2)cc1)C(C)C)C(=O)N[C@H](C=O)C[C@@H]1CCCNC1=O | 404 nM | Non-Toxic | > 3000 nM | – | –
CC(C)C[C@H](NC(=O)[C@@H](NC(=O)/C=C/c1ccc(C(C)C)cc1)C(C)C)C(=O)N[C@H](C=O)C[C@@H]1CCCNC1=O | 230 nM | Non-Toxic | > 3000 nM | – | –
CC(C)C[C@H](NC(=O)/C=C/c1ccccc1)C(=O)N[C@H](C=O)C[C@@H]1CCNC1=O | 374 nM | Non-Toxic | 1060 nM | Non-Toxic | 2
O=C[C@H](C[C@@H]1CCNC1=O)NC(=O)[C@H](Cc1cccc(F)c1)NC(=O)c1cc2ccccc2[nH]1 | 858 nM | Non-Toxic | 360 nM | – | –
